Experimental findings from patent publication EP4640223A1, “PHARMACEUTICAL COMPOSITION FOR PREVENTION OR TREATMENT OF CARDIOVASCULAR DISEASE, COMPRISING SODIUM-GLUCOSE COTRANSPORTER-2 INHIBITOR AND ANGIOTENSIN II RECEPTOR BLOCKER” (THPharm Corp., priority 2022, dated 2024) are described below.

The subject of one series is A549 cells. Nature of the series: Cell survival rate (MTT) in A549 cells. The class given is cell-based. To be noted: after 24 hours and 48 hours, up to a concentration of 25 µM. The protocol:
(§1) Specifically, A549 cells were obtained from the Korean Cell Line Bank (KCLB) and subcultured using a RPMI-1640 medium supplemented with 10% fetal bovine serum (FBS) and 1% Penicillin, and MDCK cells were obtained from ATCC and subcultured using a DMEM medium supplemented with 10% FBS. 200 µl each of the A549 cells and MDCK cells incubated in an incubator under 37°C and 5% CO2 conditions were dispensed at 2 × 10^4 cells/well in a 96-well plate, and then a control group was treated with 100 µl of the medium, and experimental groups were treated with 1.25, 25, 50, and 100 µM of Telmisartan or Olmesartan, respectively. After 24 hours and 48 hours, all of the wells were treated with 50 µl each of a 2 mg/ml MTT reagent and incubated in an incubator for 3 hours, and then each well was added with 500 µl of DMSO, wrapped in foil, stirred for 30 minutes at room temperature, and the absorbance was measured at 570 nm to obtain the cell survival rate.

A further series relates to MDCK cells. Kind of series: Cell survival rate (MTT) in MDCK cells. The series is classed as cell-based. To be noted: after 24 hours and 48 hours, up to a concentration of 25 µM. The protocol:
as §1

Series [1] is described as follows: Drug-drug compatibility test under accelerated stability conditions. The class given is physicochemical. The note with it: for flexible substance / content (SGLT-2 inhibitor) / content (ARB): HPLC; for content (SGLT-2 inhibitor): second figure of the cell; for property: color, clumping, etc.; for content (ARB): first figure of the cell. The protocol: Specifically, after storing a mixture of ARB and SGLT-2 inhibitor for 2 weeks under accelerated stability test conditions (40 ± 2°C/75 ± 5% relative humidity), changes in the contents of each ingredient and flexible substance and changes in properties (color, clumping, etc.) were analyzed. Olmesartan, Valsartan, and Telmisartan were used as ARBs, and Empagliflozin, Dapagliflozin (Dapagliflozin propanediol monohydrate), and Canagliflozin were used as SGLT-2 inhibitors.

In series [2] the test system is angiotensin converting enzyme (ACE). Nature of the series: ACE mRNA expression (RT-PCR, normalized to GAPDH) in LPS inflammation-induced H9c2 cells. The class given is cell-based, rat. The protocol:
Specifically, LPS inflammation-induced H9c2 cells in Experimental Example 1-2 were treated with 10 or 25 µM Telmisartan and 10 or 50 µM Olmesartan, and then treated with 200 µl of chloroform together with 1 ml of TRIZol (Sigma, USA), gently mixed, and separated for 10 minutes, and then centrifuged at 4°C and 10,000 rpm for 10 minutes. After centrifugation, only the supernatant from the tube was taken and transferred to a new sterile tube, and the supernatant was treated with 500 µl of isopropanol to precipitate RNA. The precipitated RNA was centrifuged at 4°C, 10,000 rpm for 10 minutes, and then the supernatant except for the pellets in the tube was fully removed, and the RNA pellets were treated with 500 µl of 75% ethyl alcohol and thoroughly washed. The washed pellets were centrifuged at 4°C, 10,000 rpm for 5 minutes, and then the supernatant except the pellets was fully removed. The tube containing the pellets from which the supernatant had been cleanly removed was treated with diethyl pyrocarbonate (DEPC)-water and stored at - 80°C for use in an RT-PCR experiment.
RT-PCR was performed by synthesizing cDNA from mRNA using an RT-PCR kit containing DNA polymerase, buffer, dNTP, and tracking dye, and then using ACE primers in Table 1 under the conditions in Table 2 for 35 cycles. The PCR products were electrophoresed on a […] agarose gel, identified using a UV transilluminator, and expressed as normalized to GAPDH for quantitative comparison.
In order to confirm the effect of each combination or single substance on the mRNA expression of ACE, the experimental samples in Table 3 were treated to H9c2 cells induced with LPS inflammation in Experimental Example 1-2, respectively, and then the mRNA expression of ACE was evaluated in the same manner as in Experimental Example 1-3.

Series [3] can be described thus: 4-week repeated oral administration toxicity. The class given is in vivo, Sprague-Dawley rats. The note with it: daily for 4 weeks, blood test. The protocol: Specifically, groups were configured in the same manner as in Experimental Example 4-1, and the combinations were administered orally daily for 4 weeks to 5 male and 5 female 6-week-old Sprague-Dawley rats per group. During the test, general symptom observation, blood test, and body weight measurement were performed, and after the observation period ended, the rats were euthanized and autopsied.

The conditions of series [4]: Dapagliflozin 10 mg in the presence of Telmisartan 80 mg, repeated oral, steady state.
Setting [5] is: Acceleration 1 week, 40 ± 2°C/75 ± 5% relative humidity.
Where [6] appears, read: Acceleration 2 week, 40 ± 2°C/75 ± 5% relative humidity.
The mark [7] stands for this setting: experimental samples at the concentrations of Table 3.
[8] abbreviates: alone, low-concentration administration groups of 2.5 µM to 10 µM.

As for `CCCc1nc(C(C)(C)O)c(C(=O)O)n1Cc1ccc(-c2ccccc2-c2nnn[nH]2)cc1` [Olmesartan], the cell survival rate result in the series with A549 cells and in the series on MDCK cells was “no effect” in each case.

As for `OC[C@H]1O[C@@H](c2ccc(Cl)c(Cc3ccc(O[C@H]4CCOC4)cc3)c2)[C@H](O)[C@@H](O)[C@@H]1O` [Com. Ex. 17, Empagliflozin], the flexible substance in series [1] (setting [5]) is given as 1.0 or less; in series [1] (setting [6]), 1.0 or more; in series [1] (Initial) it was 0.1 or less. Besides, the “content (SGLT-2 inhibitor)” value was 97.3% in series [1] (setting [5]), 95.1% in series [1] (setting [6]) and 99.9% in series [1] (Initial). For the same molecule, the property result in series [1] (setting [5]), in series [1] (setting [6]) and in series [1] (Initial) was “suitable” in each case.

Regarding `OC[C@H]1O[C@@H](c2ccc(Cl)c(Cc3ccc(O[C@H]4CCOC4)cc3)c2)[C@H](O)[C@@H](O)[C@@H]1O` [Comparative Example 8, Empagliflozin], in series [2] (setting [7]), the “mRNA expression of ACE” value is on record as “decrease below the normal level”.

Turning to `CCCc1nc2c(C)cc(-c3nc4ccccc4n3C)cc2n1Cc1ccc(-c2ccccc2C(=O)O)cc1` [Comparative Example 14, Telmisartan], in series [2] (setting [7]), the “mRNA expression of ACE” value is reported as “decrease below the normal level”.

With `CCCc1nc2c(C)cc(-c3nc4ccccc4n3C)cc2n1Cc1ccc(-c2ccccc2C(=O)O)cc1` [Com. Ex. 16, Telmisartan], in series [1] (setting [5]), the flexible substance was 0.1 or less, the “content (ARB)” value is on record as 100.1% and the property result was “suitable”. For the same molecule, in series [1] (setting [6]), the flexible substance is 0.1 or less, the “content (ARB)” value turned out to be 100% and the property entry was “suitable”. Also, in series [1] (Initial), the flexible substance is given as 0.1 or less, the “content (ARB)” value was 100.1% and the property entry is given as “suitable”.

In the case of `Cc1ccc([C@@H]2O[C@H](CO)[C@@H](O)[C@H](O)[C@H]2O)cc1Cc1ccc(-c2ccc(F)cc2)s1` [Com. Ex. 21, Canagliflozin], in series [1] (setting [5]), the flexible substance is reported as 1.0 or less, the “content (SGLT-2 inhibitor)” value was 95.2% and the property result is “unsuitable”. Also, in series [1] (setting [6]), the flexible substance is reported as 5.0 or more, the “content (SGLT-2 inhibitor)” value is given as 89.2% and the property entry is “unsuitable”. In series [1] (Initial), the flexible substance was 0.1 or less, the “content (SGLT-2 inhibitor)” value amounted to 99.5% and the property result is “suitable”.

Regarding `OC[C@H]1O[C@@H](c2ccc(Cl)c(Cc3ccc(O[C@H]4CCOC4)cc3)c2)[C@H](O)[C@@H](O)[C@@H]1O` [Empagliflozin, (1S)-1,5-anhydro-1-C-[4-chloro-3-[[4-[[(3S)-tetrahydro-3-furanyl]oxy]phenyl]methyl]phenyl]-D-glucitol], the “mRNA expression of ACE” value in series [2] (setting [8]) is on record as “did not decrease to a normal level”.

With `CCCCC(=O)N(Cc1ccc(-c2ccccc2-c2nnn[nH]2)cc1)[C@H](C(=O)O)C(C)C` [Com. Ex. 20, Valsartan], in series [1] (setting [5]), the flexible substance was 0.1 or more, the “content (ARB)” value is recorded as 99.4% and the property entry is listed as “suitable”. Also, in series [1] (setting [6]), the flexible substance is 0.1 or more, the “content (ARB)” value was found to be 99.2% and the property result was “suitable”. In series [1] (Initial), the flexible substance was 0.1 or less, the “content (ARB)” value is on record as 99.7% and the property result was “suitable”.

On to `CCOc1ccc(Cc2cc([C@@H]3O[C@H](CO)[C@@H](O)[C@H](O)[C@H]3O)ccc2Cl)cc1` [Dapagliflozin, (1S)-1,5-anhydro-1-C-{4-chloro-3-[(4-ethoxyphenyl)methyl]phenyl}-D-glucitol], for which the “mRNA expression of ACE” value in series [2] (setting [8]) was “did not decrease to a normal level”. Also, in series [3], the GLU entry is given as “decreased”. Also, the “Cmax T/R ratio” value in series [4] (90% confidence interval 0.93 to1.12) came out at 1.02. Also, the “AUC T/R ratio” value in series [4] (90% confidence interval 0.97 to 1.03) is 1.00.
